Consider three molecules from patent publication US20130102645A1, “Methods and compositions for controlling vascularization in ophthalmological and dermatological diseases” (AVIENNE PHARMACEUTICALS GMBH, priority 2011, published 2013).

Converted amounts (≈) assume the structure as drawn. “Also recorded” adds a separate entry of the source. Read-outs that look alike come from different tables or passages of the source.

One data set deals with endothelial cell lines. As to the kind of experiment: proliferation assay of primary endothelial cells, direct cell counting. Type of data set: cell-based, human. The method, then: Primary endothelial cell lines (HMVEC-dLyAd—human dermal lymphatic microvascular endothelial cells (EC), dermal blood microvascular EC, HMVEC-LB lung blood microvascular EC, HMVEC-C cardiac human microvascular endothelial cells and MVEC-d—dermal microvascular EC) are from Cambrex Bio Science (Cambrex Bio Science Walkersville Inc., Walkersville, Md., USA). Cell lines are cultured according to the manufacturer's recommendations.
For proliferation assays, cells are seeded in 24- to 96-well plates in medium at different concentrations according to the cell type. After 24 hours, the medium is removed and replaced with fresh medium containing increasing concentrations of the compounds. The plates are then incubated for additional 24 to 72 hours, depending on the type of the experiment. Cells are then trypsinized and collected for direct counting. Results are plotted and expressed as means (±SE) for each compound and for a given concentration.

Another data set concerns HUVEC. As to the kind of experiment: growth inhibition of HUVEC cell lines. Type of data set: cell-based. The following applies: Homo sapiens, read-out: IC50 for growth inhibition of HUVECs. As for the experimental part: For proliferation assays, cells are seeded in 24- to 96-well plates in medium at different concentrations according to the cell type. […] Cells are then trypsinized and collected for direct counting. Results are plotted and expressed as means (±SE) for each compound and for a given concentration.
In Table 2, the group “R” is defined as follows: […]

Data set [1] relates to SAOS-2, Hela, HT29, U87MG and SK-N-DZ cells. As to the kind of experiment: cytotoxic activity in cancer cell lines by cell numbers. Type of data set: cell-based. The following applies: up to 20 μM; uncoated dishes or coated with vitronectin or fibrinogen. As for the experimental part: For example, cytotoxic activity of AV-398 was determined in several cancer cell lines (SAOS-2, Hela, HT29, U87MG and SK-N-DZ cells) by assessing cell numbers after treating cell lines with varying concentration of up to 20 μM. Experiments were performed either on uncoated dishes, or on dishes coated with vitronectin or fibrinogen. In addition, tumor cell lines were treated in parallel with echistatin (Gan Z R et al (1998)). […] Similar data were recently published showing cytotoxic activity also only against MDA-MB-435 breast cancer cells (Dayam R et al, 2006).

In another data set the test system is MDA-MB-435. As to the kind of experiment: cytotoxic activity in breast cancer cell line. The note with it: up to 20 μM. Type of data set: cell-based.
The test system of the next data set is ocular angiogenesis. As to the kind of experiment: conjunctival incision angiogenesis model in pigs, eye drops. The data set is classed as in vivo, pig. From the text: AV-398 inhibits ocular angiogenesis in vivo in a widely accepted large animal model. The cornea is an ideal model system for angiogenesis in general, and more specifically for angiogenesis of the eye. The corneal angiogenesis assay is one of the most widely used in vivo assay for the evaluation of factors influencing angiogenesis (Auerbach R, 2003, Thiele W, 2006). One reason that makes the cornea an ideal object for observing neovascularization is its normal lack of vascularity, maintained by different molecular mechanisms. New vessels can easily be identified by visual inspection alone and quantified with the help of computerized image analysis programs. The effect of an ophthalmological formulation of AV-398 after a conjunctival insult with subsequent angiogenesis in a large animal model was investigated in order to test whether the in vitro data, such as anti-proliferative effects on human endothelial cells, could be reproduced in vivo.
Six white pigs weighing 10 to 15 kg were included. First, corneae and conjunctivae were anaesthesized by local application of lidocaine 4%. Then, an incision of 0.5 cm length through the conjunctival tunica sclerae to the substantia propria was placed in parallel to the dorsal corneal limbus at a distance of approximately 2 mm. The animals were treated as follows. The right eye of each animal was treated with a commercially available ocular eye drop solution (PROTAGENT® EYE DROPS 2%) containing 100 μg/ml of AV-398. The corresponding left eyes of each animal were control-treated with the same eye drop solution alone. Two droplets (˜100 μl) of AV-398 were applied in the right eye immediately after setting of the incision and two droplets of the ophthalmologic carrier formula as negative control in the left eye of the same animal. Animals received AV-398 as well as the eye drops 0.5 hrs post incision and the same treatment at 3 hrs post incision.

The test system of data set [2] is chorioallantoic membrane (CAM) of the developing chicken embryo. As to the kind of experiment: chicken egg chorioallantoic membrane (CAM) assay. Type of data set: in vivo. The following applies: applied on CAM day 6 p.f., incubated until day 11 p.f. From the text: Local application of AV-398 inhibits in vivo angiogenesis as evidenced by the chicken egg chorioallantoic membrane model. The chorioallantoic membrane (CAM) of the developing chicken embryo serves as an alternative to the traditional mammalian in vivo models, and further corroborates the findings in pigs described above and has clear relevance for the treatment e.g. dermatological indications linked to neoangiogenesis. AV-398 was applied over 5 days.
Eggs were opened on day 6 post fertilization (p.f.). Substances (200 μl respectively) were applied on the CAM on day 6 p.f. and incubated until day 11 p.f. As a vehicle control, 1% DMSO in PBS (phosphate-buffered saline solution pH 7.4) without AV-398 was used. Eggs were inspected daily by stereo-microscopy and pictures were taken (6× magnification).

A short description of data set [3]: rat pharmacokinetics, plasma LC-MS/MS. Type of data set: in vivo. The following applies: for half-life: iv, 5 mg/kg. The method, then:
(§1) Preliminary pharmacokinetic and preliminary toxicology information was obtained following a single intravenous dose of 5 mg/kg and a single 20 mg/kg PO dose to male Sprague-Dawley rats for 5 separate test articles. AV-398 was dosed both via the IV and PO routes. Blood was collected from the animals in Groups 1 through 10 for pharmacokinetic analysis. Approximately 0.25 mL of blood was collected in potassium EDTA tubes via the jugular cannulae for all time points. For all IV treated animals, blood was collected at 9 time points (0.083, 0.25, 0.5, 1, 2, 4, 6, 8 and 12 hour post-dose) via the jugular cannulae. For all animals treated by oral gavage, blood was collected at 7 time points (0.5, 1, 2, 4, 6, 8 and 12 hour post-dose) via the jugular cannulae. At the final time point additional blood volume was collected in a separate EDTA tube from each animal for clinical pathology evaluation (including serum chemistry and hematology). Predose samples were collected from the extra animals which were not assigned to any of the dose groups. The plasma samples were analyzed by LC-MS/MS to determine the plasma concentrations of drug candidates. Pharmacokinetic analysis of the plasma concentration data was conducted using non-compartmental analysis with WinNonlin Version 4.1. […] The oral absorption of AV-398 when administered at 20 mg/kg dose as a suspension was low at an average of 8.4%.

Data set [4] can be described thus: rat clinical pathology (serum chemistry and hematology). The note with it: rats, single 5 mg/kg IV or 20 mg/kg PO. Type of data set: in vivo. The method, then:
as §1

Another data set can be described thus: solubility. Type of data set: physicochemical. The method, then: Sufficiently concentrated solutions are readily achievable. AV-398 is soluble in PBS 7.4 at 100 μg/ml, in Tris.Cl buffer at 1 mg/ml, and as a sodium salt at least up to 20 mg/ml.
In a further data set the target is αvβ3-receptor (Homo sapiens, UniProt P05106+P06756). The following applies: cited from earlier work.
αvβ3-receptor, sequence (P06756 31-889 limits assumed): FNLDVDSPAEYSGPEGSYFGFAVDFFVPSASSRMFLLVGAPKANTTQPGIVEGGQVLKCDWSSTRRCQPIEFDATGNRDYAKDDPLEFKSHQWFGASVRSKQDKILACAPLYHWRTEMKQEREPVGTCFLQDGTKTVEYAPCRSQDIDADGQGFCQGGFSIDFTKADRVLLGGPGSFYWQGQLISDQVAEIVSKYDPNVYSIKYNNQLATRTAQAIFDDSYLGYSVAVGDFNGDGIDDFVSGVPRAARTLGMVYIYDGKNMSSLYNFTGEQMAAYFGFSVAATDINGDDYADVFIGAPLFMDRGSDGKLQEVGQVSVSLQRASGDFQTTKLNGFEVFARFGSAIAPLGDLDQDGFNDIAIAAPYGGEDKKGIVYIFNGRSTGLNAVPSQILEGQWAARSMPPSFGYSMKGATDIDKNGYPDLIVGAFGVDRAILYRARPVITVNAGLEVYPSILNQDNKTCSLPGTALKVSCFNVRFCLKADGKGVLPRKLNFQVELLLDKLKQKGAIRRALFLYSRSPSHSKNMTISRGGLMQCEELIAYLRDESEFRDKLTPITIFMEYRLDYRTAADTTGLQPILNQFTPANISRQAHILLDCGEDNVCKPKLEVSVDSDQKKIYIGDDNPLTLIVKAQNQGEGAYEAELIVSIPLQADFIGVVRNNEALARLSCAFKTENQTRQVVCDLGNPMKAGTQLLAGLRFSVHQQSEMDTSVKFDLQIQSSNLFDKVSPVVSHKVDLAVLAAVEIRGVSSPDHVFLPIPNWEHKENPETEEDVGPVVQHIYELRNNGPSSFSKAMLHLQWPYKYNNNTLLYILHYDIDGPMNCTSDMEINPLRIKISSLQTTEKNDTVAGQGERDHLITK
αvβ3-receptor, sequence (P06756 891-1048 partner limits assumed): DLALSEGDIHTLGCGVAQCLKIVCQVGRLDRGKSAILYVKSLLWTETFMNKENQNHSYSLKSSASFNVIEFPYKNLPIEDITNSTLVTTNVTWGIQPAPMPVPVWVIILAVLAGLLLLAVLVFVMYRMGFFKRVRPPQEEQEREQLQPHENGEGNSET
αvβ3-receptor, sequence (P05106 27-788): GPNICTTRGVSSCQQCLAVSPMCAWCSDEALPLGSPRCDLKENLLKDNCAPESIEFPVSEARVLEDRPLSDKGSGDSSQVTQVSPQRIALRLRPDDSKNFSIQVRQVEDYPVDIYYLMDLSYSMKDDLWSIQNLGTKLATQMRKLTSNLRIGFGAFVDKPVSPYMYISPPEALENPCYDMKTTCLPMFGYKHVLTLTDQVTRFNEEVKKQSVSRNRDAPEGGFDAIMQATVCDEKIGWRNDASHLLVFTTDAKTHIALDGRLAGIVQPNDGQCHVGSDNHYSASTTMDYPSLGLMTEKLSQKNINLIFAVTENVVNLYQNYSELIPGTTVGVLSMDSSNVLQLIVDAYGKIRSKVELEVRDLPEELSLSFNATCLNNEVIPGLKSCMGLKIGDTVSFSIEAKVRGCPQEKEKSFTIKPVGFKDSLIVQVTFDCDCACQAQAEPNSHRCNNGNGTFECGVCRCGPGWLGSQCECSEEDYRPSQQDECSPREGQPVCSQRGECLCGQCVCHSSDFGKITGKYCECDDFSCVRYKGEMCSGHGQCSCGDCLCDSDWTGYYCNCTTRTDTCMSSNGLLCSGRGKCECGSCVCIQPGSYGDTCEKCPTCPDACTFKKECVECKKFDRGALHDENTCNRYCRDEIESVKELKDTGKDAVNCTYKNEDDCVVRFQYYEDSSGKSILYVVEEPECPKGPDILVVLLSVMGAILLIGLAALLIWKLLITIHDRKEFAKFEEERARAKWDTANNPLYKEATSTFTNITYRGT
A further data set deals with endothelial cells. The note with it: read-out: IC50, colony-forming ability of endothelial cells; cited from earlier work.

`CCOc1cc(C=C2S/C(=N/c3ccc(C(=O)O)cc3)N(C)C2=O)ccc1O` (stereo in doubt) [AV-398, 4-({5-[(E)-1-(3-ethoxy-4-hydroxyphenyl)methylidene]-3-methyl-4-oxo-1,3-thiazolan-2-yliden}amino)benzoic acid]: the IC50 is 400 nM in the data set with endothelial cell lines (Homo sapiens, Endothelial cell, endothelial cells (lung, lymphatics, umbilical), FIGS. 1-3, read-out: Half-maximal growth inhibition); 200 to 500 nM in the data set with endothelial cell lines (Homo sapiens, endothelial cell lines, read-out: 50% inhibitory concentration); below 300 nM with HUVEC. In [1], the “effects on cancer cell lines (cytotoxic activity)” value is given as “no meaningful effects”. In the data set on MDA-MB-435, the “activity against breast cancer cell line MDA-MB-435” value was “limited activity”. Also, the “neoangiogenesis on conjunctivae vs control-treated eyes” value in the data set with ocular angiogenesis (eye drops 100 μg/ml, right eye, left eye vehicle) is “diminished neoangiogenesis”. Besides, the “bleeding surrounding the incision” value in the data set with ocular angiogenesis (immediately after treatment) was “marked diffuse bleeding”. Also, in the data set on ocular angiogenesis (three weeks post incision), the “local or systemic adverse side effects” value was “no local or systemic adverse side effects”. Also, the “vascularization of CAM / chicken embryo vs vehicle control” value in [2] is on record as “markedly decreased vascularization; also recorded: significant reduction of vascularization”. Also, in data set [3] (20 mg/kg as a suspension), the “oral absorption (average)” value amounted to 8.4%. In addition, the “peak plasma concentration (average)” value in data set [3] (IV 5 mg/kg) worked out at 1736.56 ng/mL. Moreover, the “time of peak plasma concentration” value in data set [3] (IV 5 mg/kg) was found to be 0.083 h. Further, the “peak plasma concentration (mean)” value in data set [3] (PO 20 mg/kg suspension) came out at 54.07 ng/mL. The AUC(0-inf) in data set [3] (male, Sprague-Dawley, plasma, IV 5 mg/kg) stood at 690 ng·h/mL. The AUC(0-t) in data set [3] (male, Sprague-Dawley, plasma, PO 20 mg/kg suspension, read-out: average AUC (0-12 hr)) was determined as 234 ng·h/mL. Besides, the half-life in data set [3] (male, Sprague-Dawley, plasma, IV 5 mg/kg, read-out: Terminal plasma half-life (converted)) is 30 min; in data set [3] (male, Sprague-Dawley, plasma, IV 5 mg/kg, read-out: terminal plasma half-life (range)), 10.8 to 40.8 min; in data set [3] (male, Sprague-Dawley, plasma, after intravenous administration, read-out: terminal plasma half-life (converted)), 30 min. Moreover, in data set [4], the “effects on hematological and serum chemistry parameters” value was “no side-related effects”. In addition, the solubility in the data set “solubility” (Tris.Cl buffer, aqueous buffer) is 1000 µg/mL (≈ 2510 µM); in the data set “solubility” (as a sodium salt) it was at least 20000 µg/mL; in the data set “solubility” (pH 7.4, aqueous buffer, PBS 7.4), 100 µg/mL (≈ 251 µM). At αvβ3-receptor, the αυβ3 binding affinity is given as 240 nM.

For the molecule echistatin [reference compound], the IC50 with endothelial cell lines (endothelial cells (lung, lymphatics, umbilical), FIGS. 1-3, read-out: Half-maximal growth inhibition) was found to be 800 nM.

For `CC(C)[C@H]1C(=O)N[C@@H](CCCN=C(N)N)C(=O)NCC(=O)N[C@@H](CC(=O)O)C(=O)N[C@H](Cc2ccccc2)C(=O)N1C` [Cilengitide, cycloL-Arg-Gly-L-Asp-D-Phe-N [Me] L-Val], the IC50 in the data set on endothelial cells is 6700 ± 1200 nM.

Broadly, the AUC(0-inf) is total exposure, with the tail of the curve extrapolated. Broadly, the half-life is the time needed for the level to fall by half in the phase considered. The solubility is how much of the substance goes into solution per volume.
